Experimental findings from US20160045486A1, “DOPAMINE RECEPTOR LIGANDS WITH ENHANCED DURATION OF ACTION” (priority 2008, published 2016) are described below.

Assay [1] deals with T1, cloned hD1 receptors expressed in Ltk cells (Homo sapiens, UniProt P21728).
T1 construct: expressed in transfected cells; host or cells: Ltk cells
The assay can be described thus: Dopamine D1 agonist activity, activation of adenylate cyclase. The class given is cell-based. As to conditions: FIG. 2, compared to dihydrexidine. How it is done:
Studies were done in cloned hD1 receptors expressed in Ltk cells.
Frozen membranes were thawed and added to assay tubes (10 μg protein/tube) containing a prepared reaction mixture [100 mM Hepes, (pH 7.4), 100 mM NaCl, 4 mM MgCl2, 2 mM EDTA, 500 μM isobutyl methylxanthine (IBMX), 0.01% ascorbic acid, 10 μM pargyline, 2 mM ATP, 5 μM GTP, 20 mM phosphocreatine, 5 units of creatine phosphokinase (CPK), 1 μM propranolol] and selected drugs. The final reaction volume was 100 μL.
Basal cAMP activity was determined by incubation of tissue in the reaction mixture with no drug added. Tubes were assayed in duplicate and, after a 15 min incubation at 30° C., the reaction was stopped by the addition of 500 μL of 0.1 N HCl. Tubes were vortexed briefly, and then spun in a BHG HermLe Z 230 M microcentrifuge for five min at 15,000×g to precipitate particulates.
The concentration of cAMP in each sample was determined with an RIA of acetylated cAMP, modified from that previously described. Iodination of cAMP was performed using a now-published procedure (Brown et al., 2009). […] Antibody-bound radioactivity was separated by the addition of 25 μL of BioMag rabbit, anti-goat IgG (Advanced Magnetics, Cambridge Mass.), followed by vortexing and incubation at 4° C. for 1 h. […] Supernatants were aspirated and radioactivity in the pellet was determined using an LKB Wallac gamma counter (Gaithersburg, Md.). […]

Assay [2] has as its target T2, Cloned human receptors D3 (CHO) (Homo sapiens, UniProt P35462).
T2 construct: expressed in transfected cells; host or cells: CHO cells
The assay can be described thus: Binding affinity, cloned human D3 receptor (CHO).
Method: (§1) Binding data from each assay were analyzed separately. Data were normalized by expressing the average dpm at each competitor concentration as a percentage of total binding.

Assay [3] concerns the target T3, Cloned human receptors D4 (CHO) (Homo sapiens, UniProt P21917).
T3 sequence (P21917 1-419): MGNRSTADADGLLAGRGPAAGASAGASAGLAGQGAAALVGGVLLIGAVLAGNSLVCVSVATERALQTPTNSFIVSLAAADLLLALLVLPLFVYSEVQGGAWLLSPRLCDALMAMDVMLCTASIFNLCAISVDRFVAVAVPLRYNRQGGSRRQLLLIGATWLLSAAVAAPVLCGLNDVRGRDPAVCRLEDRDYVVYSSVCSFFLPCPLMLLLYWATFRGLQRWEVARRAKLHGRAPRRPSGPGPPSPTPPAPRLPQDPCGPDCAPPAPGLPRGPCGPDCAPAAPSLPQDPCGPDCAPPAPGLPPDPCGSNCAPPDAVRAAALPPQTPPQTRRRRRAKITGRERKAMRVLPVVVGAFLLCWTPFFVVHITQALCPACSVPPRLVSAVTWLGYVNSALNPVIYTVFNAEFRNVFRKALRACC
The assay can be described thus: biochemical.
Method: as §1

In assay [4] the target is Cloned human receptors D5 (HEK) (Homo sapiens, UniProt P21918). The assay can be described thus: biochemical.
Chain of Cloned human receptors D5 (HEK) (P21918 whole entry): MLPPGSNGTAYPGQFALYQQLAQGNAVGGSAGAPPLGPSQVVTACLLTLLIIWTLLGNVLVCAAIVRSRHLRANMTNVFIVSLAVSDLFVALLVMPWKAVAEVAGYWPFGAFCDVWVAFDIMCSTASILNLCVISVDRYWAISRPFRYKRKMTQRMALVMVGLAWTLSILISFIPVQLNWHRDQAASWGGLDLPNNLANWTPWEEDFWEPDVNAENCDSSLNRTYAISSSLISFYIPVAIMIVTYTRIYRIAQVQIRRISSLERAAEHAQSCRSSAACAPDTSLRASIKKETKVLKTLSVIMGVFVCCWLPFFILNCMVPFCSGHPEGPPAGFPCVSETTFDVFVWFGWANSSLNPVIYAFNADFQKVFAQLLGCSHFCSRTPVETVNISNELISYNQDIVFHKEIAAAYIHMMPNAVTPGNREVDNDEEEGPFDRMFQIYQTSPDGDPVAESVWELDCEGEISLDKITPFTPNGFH
Method: as §1
The target in assay [5] is T4, Cloned human receptors D2L (C-6) (Homo sapiens, UniProt P14416).
T4 construct: expressed in transfected cells; host or cells: C-6 cells
T4 sequence (P14416 whole entry): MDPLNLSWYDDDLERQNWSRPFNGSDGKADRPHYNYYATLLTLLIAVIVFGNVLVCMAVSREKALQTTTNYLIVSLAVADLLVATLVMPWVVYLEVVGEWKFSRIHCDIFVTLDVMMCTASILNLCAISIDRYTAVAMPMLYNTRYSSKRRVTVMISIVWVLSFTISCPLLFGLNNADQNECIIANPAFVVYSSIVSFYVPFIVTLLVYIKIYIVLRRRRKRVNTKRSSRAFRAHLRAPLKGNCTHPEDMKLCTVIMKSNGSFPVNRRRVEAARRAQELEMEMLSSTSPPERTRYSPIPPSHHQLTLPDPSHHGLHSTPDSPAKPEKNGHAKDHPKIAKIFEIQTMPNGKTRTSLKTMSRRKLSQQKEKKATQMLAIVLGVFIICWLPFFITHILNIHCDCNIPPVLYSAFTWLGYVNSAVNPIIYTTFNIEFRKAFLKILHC
The assay can be described thus: Binding affinity, cloned human D2L receptor (C-6).
Method: as §1

Assay [6] deals with T5, Cloned human receptors D1 (C-6).
T5 construct: C-6 glioma cells expressing the rhesus macaque D1 A receptor, (C-6-m D1 A)
The assay can be described thus: Binding affinity, cloned human D1 receptor (C-6). How it is done:
Cells were maintained in a humidified incubator at 37° C. with 5% CO2.

Assay [7] deals with unilateral 6-OHDA rat model. The assay can be described thus: Rotation in the unilateral 6-OHDA rat model of Parkinson's disease. The class given is in vivo. The method, then:
Both drugs were administered 1 mg/kg subcutaneously (SC), and the number of rotations measured (i.e., rotations counter clockwise) over time (minutes) using the model first described by
Ungerstedt (Ungerstedt and Arbuthnott, 1970).
In some studies, adult male Sprague Dawley rats (200-250 g) were obtained from Charles River Breeding Laboratories (Raleigh, N.C.) or Harlan Laboratories (Indianapolis, Ind.). Rats were killed by decapitation, and the whole brains removed and chilled briefly in ice-cold saline. Brains were sliced with the aid of a dissecting block, and central striata were then dissected from two coronal sections containing the majority of this region. Tissue was frozen immediately on dry ice and stored at −70° C. until the day of the assay. In other studies, Sprague-Dawley rats weighing between ca. 175 g received unilateral injections of 6-OHDA. They were pretreated with 25 mg/kg desipramine, anesthetized with sodium pentobarbital and placed in a stereotaxic apparatus. Thirty gauge needles were lowered into the right aspects of the substantia nigra at Interaural zero +3.2 mm; lateral −2.0 mm; and dorsoventral −7.7 mm. Four μl of 0.1% ascorbic acid in sterile saline containing 8 μg of 6-OHDA were infused in each side over a period of 20 minutes using 10 μl Hamilton syringes and a Sage syringe pump. The needles were left in place two minutes after infusion to minimize withdrawal of the 6-OHDA solution with the needles. The small burr holes in the skull were plugged with bone wax, and the wound sutured. Post-operative care of these rats included observation, sweet food supplements, and gastric intubation during the aphagic period following lesion. Fourteen or more days after the lesion, rats were challenged with 1 mg/kg apomorphine, and rotations measured. […] The rats were then allowed to “wash-out” for a week between drug trials.

Assay [8] concerns non-dopamine receptors (monoamine transporters, serotonin, adrenergic, hH1, muscarinic, opioid, miscellaneous receptors). The assay can be described thus: Affinity at other receptors (10 μM screen of non-dopamine receptors and transporters). Particulars: 10 μM concentration; full dose-response only where >50% inhibition of binding.

Structures can show the parent of a compound that is named as a salt. Where two headings read alike, the source gives them in different places.

T2 sequence (P35462 whole entry): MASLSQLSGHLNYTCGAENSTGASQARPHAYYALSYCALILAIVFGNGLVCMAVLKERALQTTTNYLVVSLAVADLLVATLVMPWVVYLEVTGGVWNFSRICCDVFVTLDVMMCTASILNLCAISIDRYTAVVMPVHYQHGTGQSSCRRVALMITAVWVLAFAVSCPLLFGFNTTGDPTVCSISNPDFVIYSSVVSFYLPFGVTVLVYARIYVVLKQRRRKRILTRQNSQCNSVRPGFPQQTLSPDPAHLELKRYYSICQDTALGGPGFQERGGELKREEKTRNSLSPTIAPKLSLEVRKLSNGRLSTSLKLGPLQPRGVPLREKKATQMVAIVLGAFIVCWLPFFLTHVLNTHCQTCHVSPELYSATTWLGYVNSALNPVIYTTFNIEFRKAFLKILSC
T1 sequence (P21728 whole entry): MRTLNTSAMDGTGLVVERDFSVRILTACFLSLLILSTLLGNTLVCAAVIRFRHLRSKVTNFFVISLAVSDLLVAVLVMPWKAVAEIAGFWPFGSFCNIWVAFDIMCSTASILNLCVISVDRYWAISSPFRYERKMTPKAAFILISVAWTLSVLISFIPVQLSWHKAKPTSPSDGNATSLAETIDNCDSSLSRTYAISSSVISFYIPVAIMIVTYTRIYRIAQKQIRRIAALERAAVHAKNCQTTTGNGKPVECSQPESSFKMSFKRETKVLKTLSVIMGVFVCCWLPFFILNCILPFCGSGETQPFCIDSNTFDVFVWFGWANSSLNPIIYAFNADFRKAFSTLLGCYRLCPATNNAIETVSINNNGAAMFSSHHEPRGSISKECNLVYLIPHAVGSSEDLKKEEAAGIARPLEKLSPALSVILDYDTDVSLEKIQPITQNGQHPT

Consider `Cc1ccc2c(c1)[C@@H]1c3cc(O)c(O)cc3CC[C@H]1NC2` (racemic) [Compound 1, Trans-2-methyl-10,11-dihydroxy-5,6,6a,7,8,12b-hexahydrobenzo[a]phenanthridine hydrochloride], for which the “agonist intrinsic activity and potency (adenylate cyclase, percentage of activation caused by 100 μM dopamine)” value in assay [1] is “full agonist of similar intrinsic activity and potency when compared to dihydrexidine”. For the same compound, the Ki in assay [2] was found to be 0.095 µM; in assay [3] it was 0.325 µM; in assay [4], 0.007 µM; in assay [5], 0.525 µM; in assay [6] (read-out: K0.5, Cloned human receptors D1 (C-6); C-6 cells), 0.008 µM. In addition, the “agonist effects in presence of D1 antagonist SCH23390” value in assay [7] (SCH23390 0.3 mg/kg) was “completely blocked”. Also, the “rotation in presence of D2 antagonist haloperidol” value in assay [7] (haloperidol 0.1 mg/kg) is “not blocked”. Besides, the “duration of activity (rotations over time)” value in assay [7] (single subcutaneous injection of 1 mg/kg, FIG. 1) is recorded as “activity lasting for nearly ten hours”. Moreover, the “affinity for non-dopamine receptors” value in assay [8] is “little affinity for most receptors”.
As to `Oc1cc2c(cc1O)[C@@H]1c3ccccc3CN[C@H]1CC2` (relative stereo) [dihydrexidine, trans-10,11-dihydroxy-5,6,6a,7,8,12b-hexahydrobenzo[a]phenanthridine, reference compound], the Ki stood at 0.015 µM in assay [2] (CHO cells, read-out: K0.5, Cloned human receptors D3 (CHO)) and 0.0022 µM in assay [6] (C-6 cells; read-out: K0.5, Cloned human receptors D1 (C-6)).
